From patent publication US12357615B2, “Compositions for the treatment of brain tumors” (Kembi Therapeutics Pty Ltd, priority 2018, dated 2025) come the findings set out here.

The subject of test [1] is T98G AR positive glioblastoma multiforme cell line. Nature of the test: GBM tumor cell line inhibition assay (colony formation), T98G. Format: cell-based. Conditions: Homo sapiens; T98 (T98G), AR positive GBM cells, 10-12 days; read-out: GI50 (growth inhibition, colony formation). On the procedure: (§1) The term “percent colony formation” as used herein is the number of colonies after treatment with seviteronel and normalized to the number of colonies formed in the absence of seviteronel.
(§2) AR positive and AR negative GBM cells were plated at clonal density and 1-2 days later were treated with the test compounds at the indicated concentrations. After 10-12 days, the plates were stained with crystal violet. The number of colonies were then counted and normalized to the number of colonies formed in the absence of the test compounds. The results were plotted using Graphpad Prism.

The test system of test [2] is 8MGBA AR negative glioblastoma multiforme cell line. Description: GBM tumor cell line inhibition assay (colony formation), 8MGBA. It counts as cell-based. The following applies: AR negative GBM cells. On the procedure: as §1, §2
For test [3], the system named is AM38 AR negative glioblastoma multiforme cell line. Description: GBM tumor cell line inhibition assay (colony formation), AM38. Format: cell-based. The following applies: AM38, AR negative GBM cells. As for the experimental part:
as §1, §2

In test [4] the test system is LN18 AR positive cell line. Description: Clonogenic survival after radiation with seviteronel, LN18. Format: cell-based. The following applies: 2.5 μM seviteronel 24 hours before radiation 0-8 Gy. The source says:
(§3) The term “surviving fraction” as used herein is the fraction of cells that retain their reproductive integrity after radiation normalized to the fraction of cells seeded and the colonies formed in the absence of irradiation
(§4) The term “enhancement ratio” as used herein is the ratio of the Dmid (the area under the radiation survival curve, which reflects the effectiveness of radiation) in the absence of seviteronel divided by the Dmid in the presence of seviteronel.
(§5) AR positive or negative GBM cell lines were treated with seviteronel (2.5-5 uM) for 24 hours prior to treatment with a single fraction of ionizing radiation (0-8 Gy) and then replated at clonal density. After 10-14 days, cells were stained with crystal violet and colonies were counted and normalized to conditions without radiation. Enhancement ratios were calculated by dividing the Dmid (the area under the clonogenic-survival curve) of control conditions by the Dmid of the seviteronel-treated cells.

The subject of test [5] is T98G AR positive cell line. Nature of the test: Clonogenic survival after radiation with seviteronel, T98G. It counts as cell-based. The following applies: 5 μM seviteronel 24 hours before radiation 0-8 Gy.
Excerpt: as §3, §4, §5

In test [6] the test system is 8MGBA AR negative cell line. Description: Clonogenic survival after radiation with seviteronel, 8MGBA. Format: cell-based. The following applies: seviteronel 2.5-5 uM 24 hours before radiation 0-8 Gy.
Excerpt: as §3, §4, §5

In test [7] the test system is AM38 AR negative cell line. Nature of the test: Clonogenic survival after radiation with seviteronel, AM38. Format: cell-based. Conditions: seviteronel 2.5-5 uM 24 hours before radiation 0-8 Gy.
Excerpt: as §3, §4, §5

The subject of test [8] is T98G xenograft. Description: Mouse T98G xenograft model, seviteronel and radiation therapy. Format: in vivo. As for the experimental part:
T98G cancer cells were implanted into the flanks of DHT-bearing female C.B-17 SCID mice. After tumors reached approximately 100 mm3 in size, tumors were randomized into control, seviteronel alone (75 mg/kg for 30 days), radiation alone (2 Gy×6 fractions), or combined radiation and seviteronel treatment groups. Tumor size was measured over time and time to tumor doubling was estimated using the Kaplan-Meyer method. The results were plotted using Graphpad Prism.

In test [9] the test system is T98G xenograft. Conditions: implanted DHT pellets versus no DHT, female C.B-17 SCID mice. On the procedure:
T98G cancer cells were implanted into the flanks female C.B-17 SCID mice with or without implanted DHT pellets. Tumor size was measured over time. The results were plotted using Graphpad Prism.

Regarding `CC(C)[C@](O)(c1ccc2cc(OC(F)F)c(OC(F)F)cc2c1)c1c[nH]nn1` [seviteronel], the GI50 in test [1] amounted to 4 µM. The effect on growth entry in test [2] and in [3] was “little to no effect” in each case. In addition, the “enhancement ratio (Dmid without / with seviteronel)” value stood at 1.5 in test [4], 1.32 in test [5], 1.0 in [6] and 1.03 in test [7]. Moreover, the “tumor volume increase over 35 days” value in the test with T98G xenograft [8] (seviteronel 75 mg/kg days 1-30 plus radiation therapy 2 Gy x 6 fractions days 2-7) is reported as “approximately 50%”; with T98G xenograft [8] (seviteronel alone, 75 mg/kg for 30 days, untreated approximately 5 fold) it was 2-3 fold. The “mice with doubling in tumor volume after 30 days” value in the test with T98G xenograft [8] (seviteronel 75 mg/kg plus radiation therapy 2 Gy x 6 fractions) is “none”. Besides, the “time to tumor doubling” value in the test with T98G xenograft [8] (seviteronel alone, 75 mg/kg for 30 days, untreated within 15 days) is given as no more than 30 days.

On to `C[C@]12CCC(=O)C[C@@H]1CC[C@@H]1[C@@H]2CC[C@]2(C)[C@@H](O)CC[C@@H]12` [DHT, Dihydrotestosterone], for which, in the test with T98G xenograft [9], the “tumor volume over time” value is “increased more rapidly”.

One may read the GI50 as the concentration giving 50% growth inhibition.
